# Laboratory results as given in publication PMC8878107, “Human Enterovirus B: Selective Inhibition by Quinoxaline Derivatives and Bioinformatic RNA-Motif Identification as New Targets” (Pharmaceuticals, 2022).
# Columns and labels:
# EV-D68 = assay: Inhibition of EV-D68-induced cytopathogenicity, MTT method; type: cell-based, human enterovirus D 68; conditions: Enterovirus D, EVD68, 72 h; HeLa cells, MTT method after 3 days p.i.
# Procedure: (§1) After a 72 or 120 h incubation at 37 °C, cell viability was verified by the MTT method, as previously described. The activity of compounds against CVB3, CVB4, CVB5, and E9 was determined in infected cell monolayers by plaque-reduction assays, as previously reported. Briefly, the monolayer of Vero-76 cells or LLC-MK2 (E9) was grown overnight on a 24-well plate. The cells were then infected for 2 h with 250 μL of proper virus dilutions to obtain 50–100 PFU/well. Following removal of the unadsorbed virus, 500 μL of the medium (D-MEM with L-glutamine, 4500 mg/L D-glucose, and 1% inactivated FBS) containing 0.75% methyl-cellulose, with serial dilutions of quinoxalines, was added. The overlay was also added to untreated wells (non-infection controls). Cultures were incubated at 37 °C for 3 (CVB3, CVB4, CVB5) or 5 days (E9) and then fixed with PBS containing 50% ethanol and 0.8% crystal violet, washed and air-dried. Plaques were then counted.
# (§2) The size of cell growth/viability and viral multiplication at each tested drug concentration was expressed as percentage of untreated controls. Concentrations resulting in 50% inhibition (CC50 or EC50) were determined by linear regression analysis.
# CVB4 [1] = assay: Adsorption assay, CVB4 in Vero-76 cells; type: cell-based, human enterovirus B; conditions: 20 µM, 2 h at 4 °C, m.o.i. 0.1, Vero-76 cells
# Procedure: (§3) Vero-76 cells were incubated with CVB3 and CVB4 (m.o.i. = 0.1) and derivatives 6 or 7 for 2 h at 4 °C, using compound concentrations of 20 µM. […] LLC-MK2 cells were incubated with E9 and derivative 8 (Figure 3e) under the above-described experimental conditions. To identify the replication stage inhibited by quinoxaline derivatives, we performed a time-of-drug addiction assay (T.O.A.) (Figure 3a–e). Experiments were carried out on CVB3-, CVB4-,and E9-infected cells (m.o.i. = 1) treated with compounds (20 µM) at different step times of infection until 12 h post-infection, followed by virus titer determination by plaque assay.
# (§4) Vero-76 and LLC-MK2 cells grown in 24-well plates were infected with CVB3, CVB4, and E9, at an m.o.i. of 0.1, with or without test compounds, and incubated for 120 min at 4 °C. Medium containing unbound virus was then removed, and cells were washed twice with PBS and overlayed with fresh medium. Plaques were counted after 72 h of incubation at 37 °C.
# [2] = Cytotoxicity, MTT method, mock-infected HeLa cells; type: cell-based; conditions: human, concentration reducing viability of mock-infected HeLa cells by 50%
# Procedure: (§5) HeLa cells were seeded in 96-well plates at a density of 5 × 10^5 cells/mL, in minimum essential medium with Earle’s salts (MEM-E), L-glutamine, 1 mM sodium pyruvate, and 25 mg/L kanamycin, supplemented with 10% fetal bovine serum (FBS). Vero-76 and LLC-MK2 cells were seeded in 96-well plates at a density of 5 × 10^5 cells/mL in Dulbecco’s modified eagle medium (D-MEM) with L-glutamine and 25 mg/L kanamycin, complemented with 10% FBS. Cell cultures were then incubated in a humidified, 5% CO2 atmosphere at 37 °C, with or without serial dilutions of analyzed compounds. The medium used for the cytotoxic assay, as well as for antiviral assays, included 1% of the proper serum. Cell viability was determined after 72–120h at 37 °C by MTT method.
# as §2
# CVB4 [3] = assay: Virus yield reduction assay (YRA), CVB4 in Vero-76 cells; type: cell-based, human enterovirus B; conditions: m.o.i. 0.1, 72 h
# Procedure: (§6) Vero-76 and LL-MKC cells were inoculated with CVB3, CVB4, or E9 at an m.o.i. of 0.1 in maintenance medium and compounds at non-cytotoxic concentrations. After the adsorption period (2 h) at 37 °C and 5% CO2, the inoculum was removed and replaced with fresh medium containing the same concentration of compounds. After 72 h for CVB3 and CVB4 or 120 h for E9 at 37 °C and 5% CO2, each sample was collected and diluted with serial passages, starting from 10^−1, up to 10^−10. The titers of the supernatants were quantified by standard plaque assay. NM 107 (2’-C-Methyl-Cytidine) and pleconaril were employed as reference compounds.
# CVB3 [4] = assay: Virus yield reduction assay (YRA), CVB3 in Vero-76 cells; type: cell-based, human enterovirus B; conditions: m.o.i. 0.1, 72 h; for Reduction of CVB3 viral titers (trend over concentrations): non-cytotoxic concentrations (100, 20, 4, 0.8 µM)
# Procedure: as §6
# E9 [5] = assay: Plaque-reduction assay, E9 in LLC-MK2 cells; type: cell-based, human enterovirus B; conditions: Enterovirus B; for EC50: concentration reducing plaque number by 50%
# Procedure: as §1, with “The activity of compounds against EV-A71 and D68 was based on inhibition of virus-induced cytopathogenicity in HeLa and Vero-76 cells, respectively, acutely infected at a multiplicity of infection (m.o.i.) of 0.01. After” for “After”
# as §2
# [6] = Cytotoxicity, MTT method, mock-infected LLC-MK2 cells; type: cell-based; conditions: rhesus monkey, concentration reducing viability of mock-infected LLC-MK2 cells by 50%
# Procedure: as §5, §2
# CVB3 [7] = assay: Adsorption assay, CVB3 in Vero-76 cells; type: cell-based, human enterovirus B; conditions: 20 µM, 2 h at 4 °C, m.o.i. 0.1, Vero-76 cells
# Procedure: as §3, §4
# [8] = Cytotoxicity, MTT method, mock-infected Vero-76 cells; type: cell-based; conditions: African green monkey (Cercopithecus aethiops), concentration reducing viability of mock-infected Vero-76 cells by 50%, read-out: CC50 Vero76
# Procedure: as §5, §2
# CVB3 [9] = assay: Plaque-reduction assay, CVB3 in Vero-76 cells; type: cell-based, human enterovirus B
# Procedure: as §1, with “The activity of compounds against EV-A71 and D68 was based on inhibition of virus-induced cytopathogenicity in HeLa and Vero-76 cells, respectively, acutely infected at a multiplicity of infection (m.o.i.) of 0.01. After” for “After”
# as §2
# CVB4 [10] = assay: Plaque-reduction assay, CVB4 in Vero-76 cells; type: cell-based, human enterovirus B
# Procedure: as §1, with “The activity of compounds against EV-A71 and D68 was based on inhibition of virus-induced cytopathogenicity in HeLa and Vero-76 cells, respectively, acutely infected at a multiplicity of infection (m.o.i.) of 0.01. After” for “After”
# as §2
# EV-A71 = assay: Inhibition of EV-A71-induced cytopathogenicity, MTT method; type: cell-based, human enterovirus A71; conditions: Enterovirus A, EVA71, 96 h, 50% protection of Vero-76 cells from EV-A71-induced cytopathogenicity, day 4/5 p.i.
# E9 [11] = assay: Virus yield reduction assay (YRA), E9 in LLC-MK2 cells; type: cell-based, human enterovirus B
# Procedure: as §6
# [12] = Enterovirus B, CVB3, Vero 76, concentration reducing plaque number by 50%
# [13] = Enterovirus B, CVB3, Vero 76, concentration reducing plaque number by 90%
# [14] = concentration reducing plaque number by 50%
# [15] = concentration reducing plaque number by 90%
# [16] = Enterovirus B, CVB4, Vero 76, concentration reducing plaque number by 50%
# [17] = Enterovirus B, CVB4, Vero 76, concentration reducing plaque number by 90%
Structure (SMILES),EC50 (EV-D68) [µM],CVB4 virus titer in comparison to the untreated infected control (CVB4 [1]),CC50 [2] [µM],Reduction of CVB3 viral titers (trend over concentrations) (CVB3 [4]),EC50 (E9 [5]) [µM],CC50 [6] [µM],CVB3 virus titer in comparison to the untreated infected control (CVB3 [7]),CC50 [8] [µM],EC50 (CVB3 [9]; [12]) [µM],EC90 (CVB3 [9]; [13]) [µM],EC50 (CVB3 [9]; [14]) [µM],EC50 (CVB4 [10]; [16]) [µM],EC90 (CVB4 [10]; [17]) [µM],EC50 (EV-A71) [µM],further results
CCOC(=O)c1ccc(SCc2ccc3nc(OC)c(OC)nc3c2)cc1 [Compound 6],> 100,detectable reduction of the virus titer,> 100,same trend of reduction in viral loads,> 100,> 100,detectable reduction of the virus titer,> 100,2 to 3,12,2.5,1.7,12,> 100,Reduction of CVB4 viral titers (CVB4 [3]; 0.8 µM): 2 logs; Reduction of CVB4 viral titers (CVB4 [3]; 4 µM): 2.5 logs; Effect on CVB4 viral titers (CVB4 [3]; 100 and 20 µM): complete suppression; EC90 (CVB3 [9]; [15]): 13 µM
COc1nc2ccc(CSc3ccc(C(=O)O)cc3)cc2nc1OC [Compound 7],> 95,detectable reduction of the virus titer,95,dose-dependent reduction of viral titers,> 100,100,detectable reduction of the virus titer,100,2 to 3,14,2,1.5,3,> 100,"Inhibition of CVB4 (CVB4 [3]; 0.8 µM): no significant inhibition; Production of CVB4 virus (CVB4 [3]; 100, 20, and 4 µM): completely inhibited; Reduction in CVB3 viral load (CVB3 [4]; 4 µM): one log reduction in viral load; EC50 (CVB4 [10]; [14]): 1.45 µM; EC90 (CVB4 [10]; [15]): 3.2 µM"
CCOC(=O)c1ccc(SCc2ccc3nc(OC)c(OC)nc3c2)nc1 [Compound 8],50,–,> 100,–,6,> 100,–,> 100,> 100,–,–,> 100,–,> 100,"EC90 (E9 [5]; [15]): 16 µM; Effect on E9 viral replication (E9 [11]; 100 and 20 µM, m.o.i. 0.1, 120 h): completely suppressed viral replication; Reduction in E9 viral loads (E9 [11]; lower concentrations (below 20 µM)): no reduction in viral loads"
COc1nc2ccc(CSc3ccc(C(=O)O)cn3)cc2nc1OC [Compound 9],70,–,> 100,–,55,100,–,100,100,–,–,> 100,–,> 100,–
"C[C@@]1(O)[C@H](O)[C@@H](CO)O[C@H]1n1ccc(N)nc1=O [NM107, 2′-C-methylcytidine, reference compound]",–,–,–,–,–,–,–,> 100,29 ± 3,–,–,–,–,6 ± 1,–
"Cc1cc(CCCOc2c(C)cc(-c3noc(C(F)(F)F)n3)cc2C)on1 [PLe, Pleconaril, reference compound]",0.4 ± 0.2,–,> 100,–,0.1 ± 0.05,> 100,–,> 100,–,–,–,2 ± 1,–,–,–
